Data: patent US8618082B2, “Lupeol anti-tumor agent and uses thereof” (Wisconsin Alumni Research Foundation, priority 2004, dated 2013)

Tests used:
CD-1 mouse skin = experiment: TPA-induced epidermal hyperplasia (hematoxylin and eosin histology); assay type: in vivo
Method: FIG. 2. Inhibitory effect of Lupeol on TPA-induced hyperplasia in CD-1 mice: 24 and 48 h after treatment, the animals were sacrificed; skin biopsies were processed for hematoxylin and eosin staining. Representative pictures are shown.
The effect of topical application of Lupeol on TPA-mediated induction of epidermal hyperplasia was then assessed.
The animals were shaved on the dorsal side of the skin, divided into four groups and treated topically on the shaved area with either 0.4 ml vehicle (acetone), or TPA (3.2 nmol/0.4 ml acetone/animal, v/v), or Lupeol (1 or 2 mg/0.2 ml acetone/animal, w/v) followed 30 min later with TPA (3.2 nmol/0.2 ml acetone/animal). Animals were sacrificed at different times point i.e. 6, 12, 24 and 48 h post TPA treatment. The epidermis was separated from the whole skin and homogenized in 0.1 M Tris-HCl buffer (pH 7.2) using a Polytron tissue homogenizer (Brinkmann Instruments, Westbury, N.Y., USA) at 100,000×g supernatant, and microsomal fractions were prepared as described earlier (Katiyar and Mukhtar, 1997). […]
To assess the inhibitory effect of pre-application of Lupeol on TPA-induced edema, 1 cm-diameter punches of skin from vehicle-, Lupeol-, TPA- or Lupeol- and TPA-treated mice were removed, made free of fat pads, and weighed immediately. After drying for 24 h at 50° C., the skin punches were reweighed, and the loss of water content was determined. […]

epidermal COX-2 protein = experiment: TPA-induced epidermal COX-2 protein expression (western blot); assay type: in vivo, mouse
Method: FIG. 4. Inhibitory effect of Lupeol on TPA-induced epidermal ODC, iNOS and COX-2 protein expression in CD-1 mice: At different times after treatment, the animals were sacrificed, epidermal protein lysate was prepared, and ODC and COX-2 protein expression were determined. Equal loading of protein was confirmed by stripping the immunoblot and reprobing it for β-actin. The immunoblots shown here are representative of three independent experiments with similar results. The values above each lane indicate relative density of the band normalized to β-actin.
The animals were shaved on the dorsal side of the skin, divided into four groups and treated topically on the shaved area with either 0.4 ml vehicle (acetone), or TPA (3.2 nmol/0.4 ml acetone/animal, v/v), or Lupeol (1 or 2 mg/0.2 ml acetone/animal, w/v) followed 30 min later with TPA (3.2 nmol/0.2 ml acetone/animal). Animals were sacrificed at different times point i.e. 6, 12, 24 and 48 h post TPA treatment. The epidermis was separated from the whole skin and homogenized in 0.1 M Tris-HCl buffer (pH 7.2) using a Polytron tissue homogenizer (Brinkmann Instruments, Westbury, N.Y., USA) at 100,000×g supernatant, and microsomal fractions were prepared as described earlier (Katiyar and Mukhtar, 1997). The sample of 6 h treatment group was used to assess the ODC activity as this time point has previously been shown for optimal induction of the enzyme (Katiyar er al., 1996).
Epidermis from the whole skin was separated as described earlier (Katiyar et al., 1999) and was homogenized in ice-cold lysis buffer [50 mM Tris-HCl, 150 mM NaCl, 1 mM EGTA, 1 mM EDTA, 20 mM NaF, 100 mM Na3VO4, 0.5% NP-40, 1% Triton X-100, 1 mM PMSF (pH 7.4)] with freshly added protease inhibitor cocktail, Protease Inhibitor Cocktail Set III (Calbiochem, La Jolla, Calif., USA). The homogenate was then centrifuged at 14,000×g for 25 minutes at 4° C. and the supernatant (total cell lysate) was collected, aliquoted and stored at −80° C. For the preparation of nuclear lysate, 0.2 g of the epidermis was homogenized in 1 ml of ice-cold phosphate-buffered saline (pH 7.6) and centrifuged at 12,000×g for 5 min at 4° C. […] The protein content in the lysates was measured by DC BioRad assay (BioRad Laboratories, Hercules, Calif.) as per the manufacturer's protocol.
For western blot analysis, 40 μg of the protein was resolved over 8-12% polyacrylamide gels and transferred to a nitrocellulose membrane. […] This was followed by incubation with anti-mouse or anti-rabbit secondary antibody horse-radish peroxidase (Amersham Life Sciences, Inc., USA) for 1 h and then washed several times and detected by chemiluminescence ECL kit, (Amersham Life Sciences, Inc., USA) and autoradiography using XAR-5 film obtained from Eastman Kodak Co. (Rochester, N.Y., USA). […]

[1] = test system: normal human prostate epithelial cells (PrEC); experiment: Viability of normal human prostate epithelial cells, MTT assay; assay type: cell-based; conditions: 48 hours
Method: FIG. 9 depicts effect of Lupeol on viability of normal human prostate epithelial cells (PrEC). Cells were treated with specified concentrations of Lupeol for 48 h, and cell viability was determined by MTT (3-[4,5-dimethylthiazol-2-yl]-2,5-diphenyl tetrazoliumbromide) assay. The values are represented as the percent viable cells where vehicle-treated cells were regarded as 100% viable. Data represents mean value of percent viable cells±S.E of three independent experiments.

AsPC-1 cells = experiment: Apoptosis in AsPC-1 cells by fluorescence microscopy and flow cytometry; assay type: cell-based; conditions: flow cytometry and confocal microscopy
From the text: FIG. 21 depicts Lupeol induced apoptosis in AsPC-1 cells as assessed by fluorescence microscopy (Upper Panel) and by flow cytometry (Bottom Panel). Upper panel of FIG. 21 contains the representative micrographs of AsPC-1 cells undergoing apoptosis induced by treatment with Lupeol as assessed by fluorescence microscopy (Upper panel).

[2] = test system: PARP, Bax, Bcl-2 in AsPC-1 cells; experiment: PARP cleavage and Bax, Bcl-2 expression in AsPC-1 cells; assay type: cell-based
From the text: FIG. 22 depicts effect of Lupeol treatment on PARP cleavage and on protein expression of Bax, Bcl-2 in AsPC-1 cells.

Question: How did the “epidermal hyperplasia after Lupeol alone” value (CD-1 mouse skin; Lupeol alone) turn out when `C=C(C)[C@@H]1CC[C@]2(C)CC[C@]3(C)[C@H](CC[C@@H]4[C@@]5(C)CC[C@H](O)C(C)(C)[C@@H]5CC[C@]43C)[C@@H]12` [Lupeol, Lup-20(29)-en-3β-ol] was run?
Answer: did not induce any epidermal hyperplasia

Question: And the “induction of epidermal hyperplasia by TPA” value (CD-1 mouse skin; topical Lupeol prior to TPA, 24 and 48 h)?
Answer: resulted in inhibition in the induction of epidermal hyperplasia

Question: What about the “inhibition in TPA-caused increased epidermal COX-2 protein expression” value (epidermal COX-2 protein; Lupeol 1 mg/animal) of the same compound?
Answer: 40%

Question: What about the “TPA-induced COX-2 protein level” value (epidermal COX-2 protein; Lupeol 2 mg/animal) of the same compound?
Answer: restored the level of TPA-induced COX-2 protein almost to its basal level

Question: And the “epidermal COX-2 protein expression after Lupeol alone” value (epidermal COX-2 protein; Lupeol alone 2 mg)?
Answer: did not produce any change

Question: And the “cell death of normal prostate epithelial cells” value ([1]; 60 μM Lupeol)?
Answer: 30%

Question: What about the “cell death of normal prostate epithelial cells” value ([1]; Lupeol up to 50 μM) of the same compound?
Answer: did not exhibit any significant cell death

Question: And the “induction of apoptosis in ASPC-1 cells” value (AsPC-1 cells)?
Answer: inducing apoptosis

Question: And the “expression level of anti-apoptotic protein Bcl-2” value [2]?
Answer: no change was observed

Question: And the Bax protein expression ([2]; 48 hours)?
Answer: increased Bax protein expression

Question: And the “cleavage of PARP” value ([2]; 48 hours)?
Answer: induced cleavage of PARP
